Test in all cases: relative viability (nuclei count vs DMSO), 5 days (fraction); higher = more cells survive
Compound in test [1]: C=CCNC1=C2C[C@@H](C)C[C@H](OC)[C@H](O)[C@@H](C)/C=C(\C)[C@H](OC(N)=O)[C@@H](OC)/C=C\C=C(/C)C(=O)NC(=CC1=O)C2=O [17-AAG] + O=C(CCCCCCC(=O)Nc1ccccc1)NO [Vorinostat] (partner 1 µM)
The procedure, abridged: (§1)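 One day after seeding in 1536-well plates, lung cancer cell lines were dosed by pin tool. Dosing was either single-drug or a fixed anchor-drug dose plus five library-drug doses (not always all listed) in √10 steps. After 5 days, nuclei were stained in one fix-and-stain step and counted on 4× images, and relative viability is the nuclei count of treated wells over that of vehicle wells, given as the median of duplicate plates.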

Compound in test [2]: C=CCNC1=C2C[C@@H](C)C[C@H](OC)[C@H](O)[C@@H](C)/C=C(\C)[C@H](OC(N)=O)[C@@H](OC)/C=C\C=C(/C)C(=O)NC(=CC1=O)C2=O [17-AAG] + NC(=O)Nc1cc(-c2cccc(F)c2)sc1C(=O)N[C@H]1CCCNC1 [AZD7762] (partner 0.2 µM)
The procedure, abridged: as §1

Compound in test [3]: C=CCNC1=C2C[C@@H](C)C[C@H](OC)[C@H](O)[C@@H](C)/C=C(\C)[C@H](OC(N)=O)[C@@H](OC)/C=C\C=C(/C)C(=O)NC(=CC1=O)C2=O [17-AAG] + COc1cc2c(Oc3ccc(NC(=O)C4(C(=O)Nc5ccc(F)cc5)CC4)cc3F)ccnc2cc1OCCCN1CCOCC1 [Foretinib] (partner 0.25 µM)
The essentials: as §1

Compound in test [4]: C=CCNC1=C2C[C@@H](C)C[C@H](OC)[C@H](O)[C@@H](C)/C=C(\C)[C@H](OC(N)=O)[C@@H](OC)/C=C\C=C(/C)C(=O)NC(=CC1=O)C2=O [17-AAG] + CS(=O)(=O)N1CCN(Cc2cc3nc(-c4cccc5[nH]ncc45)nc(N4CCOCC4)c3s2)CC1 [Pictilisib] (partner 1 µM)
The procedure, abridged: as §1

Relative viability data for seven cell lines are collected here from the supplement of paper PMC10307832.

Turning to BEN, the relative viability came out at 0.673 in test [1] (first compound 0.00128 µM); 0.586 in test [1] (first compound 0.004048 µM); 0.664 in test [1] (first compound 0.0128 µM); 0.667 in test [1] (first compound 0.04048 µM); 0.464 in test [1] (first compound 0.128 µM); 0.692 in test [2] (first compound 0.00128 µM). In addition, the relative viability amounted to 0.891 in test [2] (first compound 0.004048 µM); 0.648 in test [2] (first compound 0.0128 µM); 0.5 in test [2] (first compound 0.04048 µM); 0.392 in test [2] (first compound 0.128 µM); 0.626 in test [3] (first compound 0.00128 µM); 0.767 in test [3] (first compound 0.004048 µM). Further, the relative viability in test [3] (first compound 0.0128 µM) is 0.649; in test [3] (first compound 0.04048 µM) it was 0.517; in test [3] (first compound 0.128 µM) it was 0.411; in test [4] (first compound 0.00128 µM), 0.569; in test [4] (first compound 0.004048 µM), 0.72; in test [4] (first compound 0.0128 µM), 0.656. For the same cell line, the relative viability in test [4] (first compound 0.04048 µM) worked out at 0.346; in test [4] (first compound 0.128 µM), 0.183.

As for ABC-1, the relative viability in test [1] (first compound 0.00128 µM) was determined as 1.15; in test [1] (first compound 0.004048 µM) it was 1.15; in test [1] (first compound 0.0128 µM), 1.21; in test [1] (first compound 0.04048 µM) it was 1.06; in test [1] (first compound 0.128 µM) it was 0.724; in test [2] (first compound 0.00128 µM), 0.902. Besides, the relative viability in test [2] (first compound 0.004048 µM) came out at 0.726; in test [2] (first compound 0.0128 µM), 0.844; in test [2] (first compound 0.04048 µM), 0.835; in test [2] (first compound 0.128 µM) it was 0.498; in test [3] (first compound 0.00128 µM), 0.9; in test [3] (first compound 0.004048 µM), 0.882. For the same cell line, the relative viability in test [3] (first compound 0.0128 µM) amounted to 1.08; in test [3] (first compound 0.04048 µM) it was 1.05; in test [3] (first compound 0.128 µM) it was 0.432; in test [4] (first compound 0.00128 µM) it was 0.794; in test [4] (first compound 0.004048 µM), 0.777; in test [4] (first compound 0.0128 µM), 0.829. In addition, the relative viability in test [4] (first compound 0.04048 µM) amounted to 0.81; in test [4] (first compound 0.128 µM) it was 0.651.

Regarding HCC-15, the relative viability was 0.892 in test [1] (first compound 0.00128 µM); 0.995 in test [1] (first compound 0.004048 µM); 0.641 in test [1] (first compound 0.0128 µM); 0.407 in test [1] (first compound 0.04048 µM); 0.263 in test [1] (first compound 0.128 µM); 1.29 in test [2] (first compound 0.00128 µM). Besides, the relative viability stood at 1.27 in test [2] (first compound 0.004048 µM); 0.986 in test [2] (first compound 0.0128 µM); 0.461 in test [2] (first compound 0.04048 µM); 0.158 in test [2] (first compound 0.128 µM); 0.907 in test [3] (first compound 0.00128 µM); 0.718 in test [3] (first compound 0.004048 µM). Besides, the relative viability in test [3] (first compound 0.0128 µM) turned out to be 0.29; in test [3] (first compound 0.04048 µM), 0.137; in test [3] (first compound 0.128 µM), 0.12; in test [4] (first compound 0.00128 µM), 0.73; in test [4] (first compound 0.004048 µM), 0.774; in test [4] (first compound 0.0128 µM), 0.508. Moreover, the relative viability in test [4] (first compound 0.04048 µM) was determined as 0.187; in test [4] (first compound 0.128 µM), 0.121.

Take NCI-H2170: the relative viability worked out at 0.837 in test [1] (first compound 0.00128 µM); 0.827 in test [1] (first compound 0.004048 µM); 0.336 in test [1] (first compound 0.0128 µM); 0.169 in test [1] (first compound 0.04048 µM); 0.143 in test [1] (first compound 0.128 µM); 0.832 in test [2] (first compound 0.00128 µM). For the same cell line, the relative viability in test [2] (first compound 0.004048 µM) turned out to be 0.734; in test [2] (first compound 0.0128 µM), 0.305; in test [2] (first compound 0.04048 µM), 0.126; in test [2] (first compound 0.128 µM), 0.128; in test [3] (first compound 0.00128 µM) it was 0.961; in test [3] (first compound 0.004048 µM) it was 1.01. In addition, the relative viability came out at 0.955 in test [3] (first compound 0.0128 µM); 0.607 in test [3] (first compound 0.04048 µM); 0.328 in test [3] (first compound 0.128 µM); 0.279 in test [4] (first compound 0.00128 µM); 0.284 in test [4] (first compound 0.004048 µM); 0.167 in test [4] (first compound 0.0128 µM). Also, the relative viability in test [4] (first compound 0.04048 µM) is 0.153; in test [4] (first compound 0.128 µM), 0.175.

Take RERF-LC-KJ: the relative viability in test [1] (first compound 0.00128 µM) stood at 0.796; in test [1] (first compound 0.004048 µM) it was 0.686; in test [1] (first compound 0.0128 µM), 0.475; in test [1] (first compound 0.04048 µM) it was 0.321; in test [1] (first compound 0.128 µM), 0.222; in test [2] (first compound 0.00128 µM) it was 1. The relative viability in test [2] (first compound 0.004048 µM) is 1.16; in test [2] (first compound 0.0128 µM), 0.859; in test [2] (first compound 0.04048 µM), 0.229; in test [2] (first compound 0.128 µM), 0.118; in test [3] (first compound 0.00128 µM) it was 0.883; in test [3] (first compound 0.004048 µM), 0.951. Also, the relative viability turned out to be 0.974 in test [3] (first compound 0.0128 µM); 0.346 in test [3] (first compound 0.04048 µM); 0.296 in test [3] (first compound 0.128 µM); 0.591 in test [4] (first compound 0.00128 µM); 0.688 in test [4] (first compound 0.004048 µM); 0.324 in test [4] (first compound 0.0128 µM). In addition, the relative viability in test [4] (first compound 0.04048 µM) was determined as 0.242; in test [4] (first compound 0.128 µM), 0.21.

Consider NCI-H1993, for which the relative viability was determined as 0.83 in test [1] (first compound 0.00128 µM); 0.73 in test [1] (first compound 0.004048 µM); 0.472 in test [1] (first compound 0.0128 µM); 0.201 in test [1] (first compound 0.04048 µM); 0.273 in test [1] (first compound 0.128 µM); 0.936 in test [2] (first compound 0.00128 µM). Also, the relative viability in test [2] (first compound 0.004048 µM) turned out to be 0.644; in test [2] (first compound 0.0128 µM) it was 0.325; in test [2] (first compound 0.04048 µM), 0.339; in test [2] (first compound 0.128 µM), 0.248; in test [3] (first compound 0.00128 µM), 0.83; in test [3] (first compound 0.004048 µM), 0.846. The relative viability stood at 0.826 in test [3] (first compound 0.0128 µM); 0.516 in test [3] (first compound 0.04048 µM); 0.466 in test [3] (first compound 0.128 µM); 0.797 in test [4] (first compound 0.00128 µM); 0.806 in test [4] (first compound 0.004048 µM); 0.667 in test [4] (first compound 0.0128 µM). For the same cell line, the relative viability in test [4] (first compound 0.04048 µM) came to 0.6; in test [4] (first compound 0.128 µM), 0.638.

With NCI-H358, the relative viability was 0.703 in test [1] (first compound 0.00128 µM); 0.439 in test [1] (first compound 0.004048 µM); 0.113 in test [1] (first compound 0.0128 µM); 0.0837 in test [1] (first compound 0.04048 µM); 0.0628 in test [1] (first compound 0.128 µM); 0.522 in test [2] (first compound 0.00128 µM). For the same cell line, the relative viability is 0.381 in test [2] (first compound 0.004048 µM); 0.132 in test [2] (first compound 0.0128 µM); 0.142 in test [2] (first compound 0.04048 µM); 0.139 in test [2] (first compound 0.128 µM); 0.669 in test [3] (first compound 0.00128 µM); 0.397 in test [3] (first compound 0.004048 µM). For the same cell line, the relative viability stood at 0.0697 in test [3] (first compound 0.0128 µM); 0.0813 in test [3] (first compound 0.04048 µM); 0.0542 in test [3] (first compound 0.128 µM); 0.392 in test [4] (first compound 0.00128 µM); 0.219 in test [4] (first compound 0.004048 µM); 0.125 in test [4] (first compound 0.0128 µM). Moreover, the relative viability in test [4] (first compound 0.04048 µM) was found to be 0.131; in test [4] (first compound 0.128 µM), 0.126.
